Measured values taken from patent US5034419A, “N-cycloalkylalkylamines, process for their preparation, their use as medicament and their synthesis intermediates” (L'Oreal, priority 1988, dated 1991).
Structures can show the parent of a compound that is named as a salt. Where two headings read alike, the source gives them in different places.

Key:
[1] = antagonism of amnesia caused by scopolamine, passive avoidance test; format: in vivo, mice
Method: The animal is introduced into the illuminated compartment, and when it moves to the dark compartment it receives an electric current (0.35 mA) through the base until it returns to the illuminated compartment, from where it is then removed.
After 24 hours, the operation is repeated. The mouse is replaced in the apparatus and it avoids entering into the dark compartment. The time which elapses before passage into this compartment is recorded; under the conditions of the experiment, the efficacy of the compounds under investigation in antagonizing the amnesic effect of scopolamine, which is administered intraperitoneally in an amount of 1 mg/kg 30 minutes before the animal is first introduced into the apparatus, can be evaluated.
In control mice which have received only scopolamine, the time elapsed before passage after 24 hours is remarkably lower than that observed in the untreated animals.
The study of the products according to the invention by this method is performed on groups of 18 mice and the products are administered orally on the first day in an amount of 0.25 mg/kg 30 minutes before administration of scopolamine i.p.

kappa receptors = target: T1, kappa receptors (Cavia porcellus, UniProt P41144); assay: in vitro affinity for kappa receptors; format: binding; details: Table 3; read-out: kappa rec. IC50
T1 construct: from tissue
Method: (§1) The "in vitro" study of the affinity of the compounds according to the invention for the three opium receptors is carried out in accordance with the technique described by F. Roman and coll. in J. Pharm. Pharmacol. 1987, 39, p. 404-407 and the study of the affinity for PCP receptors is carried out in accordance with the technique described by Vignon J. and coll. in "Brain Res." 1983; 280, p. 194-7 and 1986; 378, p. 133-41.
(§2) The results shown in table 3 are, for each receptor studied, expressed in IC50, which are the nanomolar concentrations of the dissolved products which are capable of inhibiting 50% of the bonds between the specific radioactive ligand to the receptor under consideration.

[2] = protection from convulsions induced by picrotoxin in mice; format: in vivo, "Swiss" male mice; details: for i.p.: % prot. (inhibition of convulsions induced by picrotoxin): 50 mg/kg i.p., picrotoxin 24 mg/kg i.p. 30 minutes later; for i.p.: % prot. (inhibition of convulsions induced by picrotoxin) / p.o.: % prot. (inhibition of convulsions induced by picrotoxin): * p<0.05, ** p<0.01, *** p<0.001; for p.o.: % prot. (inhibition of convulsions induced by picrotoxin): 100 mg/kg p.o., picrotoxin 24 mg/kg i.p. 60 minutes later; for ED50: Mus musculus
Method: b) The psychotropic properties of the compounds were determined by the protection from convulsions induced by picrotoxin in mice, which was realized in accordance with a method derived from that of Krall and coll., "Epilepsia", 1978, 19, p. 409-428.
The administration of picrotoxin to animals causes a convulsive attack characterized by a myoclonic extension syndrome followed by extension of the limbs leading to death of the animals. Certain substances, in particular those which act on the GABA/benzodiazepine/Cl-ionophor complex, provide protection of the animals from these convulsive attacks.
In practice, the study is carried out on groups of 10 "Swiss" male mice weighing about 20 g, to which the product under investigation is administered in aqueous solution either intraperitoneally (i.p.) or orally (p.o.).
An intraperitoneal injection of a solution of picrotoxin in an amount of 24 mg/kg in a volume of 0.2 ml per animal is then performed, either 30 minutes after intraperitoneal administration of the product or 60 minutes after oral administration of the product, the dose of the product injected in this way causing a clonic attack which leads to death of the untreated animals. Under the conditions of the test, suppression of the tonic extension phase is found in the animals treated.
The results are expressed:
either as the percentage of animals protected from this phase under the action of 50 mg/kg compound under investigation administered i.p. or 100 mg/kg p.o.,
or in the ED50 for each of these groups, which is the effective dose of the compound under investigation expressed in mg/kg which protects 50% of animals from this extension phase, the significance value of the results generally being indicated in the following manner: […]

sigma receptors = target: T2, sigma receptors (Cavia porcellus, UniProt Q60492); assay: in vitro affinity for sigma receptors, competition with (+)[3H]SKF10,047; format: binding, guinea-pig (cerebral membranes)
T2 construct: sigma receptors of the cerebral membranes of the guinea-pig used in this study; from tissue; host or cells: guinea-pig cerebral membranes
Method: The test is carried out by incubating solutions of suitable concentrations of the products with standard samples of membranes and determining, after filtration, the residual radioactivity of the solution.

delta receptors = target: T3, delta receptors (Cavia porcellus, UniProt A0A286XTF2); assay: in vitro affinity for delta receptors; format: binding; details: Table 3; read-out: delta rec. IC50
T3 construct: from tissue
Method: as §1, §2

mu receptors = assay: in vitro affinity for mu receptors; format: binding; details: Table 3; read-out: mu rec. IC50
Method: as §1, §2

[3] = inhibition of gastro-duodenal ulcers caused by cysteamine; format: in vivo, Wistar female rats; details: Rattus norvegicus; cysteamine hydrochloride 400 mg/kg s.c.; products orally or subcutaneously; read-out: ED50 - ulceration scores
Method: This activity is set in relation to the capacity of the products to cause an increase in the alkaline secretion in the duodenum in anaesthetized animals.
In this test, groups of 6 Wistar female rats with an average weight of 200 g receive a subcutaneous injection of cysteamine hydrochloride in an amount of 400 mg/kg. The products under investigation are administered orally or subcutaneously 1 h or, respectively, 30 minutes before the ulcerogenic agent.
Ten hours thereafter, the rats are sacrificed by elongation and their stomach and duodenum are removed, rinsed with physiological solution and mounted on a card. The presence of ulcers in the antro-pyloric-duodenal zone is examined and their area, expressed in mm^2, is evaluated by multiplying the two main perpendicular axis of the lesion. Statistical analysis of the results is performed with the aid of the Student test for the ulcerated areas in comparison with a control group receiving only excipient.
The results presented in table 5 are expressed in ED50 of ulceration scores, which are the effective doses, expressed in mg/kg product, which cause inhibition of 50% of the ulcerations caused by cysteamine.

[4] = alkaline duodenal secretion in anaesthetized rats; format: in vivo, male rats; details: 1 mg/kg intravenously
Method: The activity of the products on alkaline duodenal secretion in rats is studied in accordance with a technique described by FLEMSTROM and coll. Gastroenterology, 1983, 84, p. 787-794.
The test comprises determination every 10 minutes, for 3 hours and in situ, of the alkaline secretion of a duodenal segment 12 mm in length, with no Brunner glands and situated 2 cm from the pylorus.
The study is performed on male rats of about 350 g previously anaesthetized, in which the duodenal segment chosen in cannulated by 2 glass tubes in accordance with the technique described by the author, and in which a luminal perfusate consisting of 5 ml isotonic NaCl solution is maintained at 37° C.
The variations in the intraluminal alkaline secretion are measured by pHmetry every 10 minutes by means of an automated system maintaining a constant pH of 7.4 by in situ addition of a 0.04N solution of hydrochloric acid. Fifty minutes after the start of the experiment, the products under investigation are administered intravenously or intraarterially in an amount of 1 mg/kg and the volume of hydrochloric acid introduced, which is a reflection of the in situ increase in alkaline secretion, is measured every 10 minutes for 3 hours with respect to the start of the experiment, that is to say for 130 minutes after injection of the product under investigation.
The following are determined for each product:
a) The maximum increase in secretion in micro-eq/cm/h under the action of the drug, taking into account the basal secretion of the same animals observed for 50 minutes before administration of the product.
The results are shown in table 6, which follows, for the products (I) according to the invention administered intravenously in an amount of 1 mg/kg.

PCP receptors = assay: in vitro affinity for phencyclidine (PCP) receptors; format: binding; details: Table 3; read-out: PCP rec. IC50
Method: as §1, §2

[5] = 0.25 mg/kg orally, scopolamine 1 mg/kg i.p. 30 minutes later, latency after 24 hours, hydrochloride
[6] = IC50 (bonding affinity to sigma receptors), Table 2, (+)[3H]SKF10,047, guinea-pig cerebral membranes
[7] = Table 2, (+)[3H]SKF10,047, guinea-pig cerebral membranes, read-out: IC50 (bonding affinity to sigma receptors)
[8] = po, 1 h, read-out: p.o.: ED50 (inhibition of convulsions induced by picrotoxin)
[9] = Table 3, read-out: sigma rec. IC50

T2 sequence (Q60492 whole entry): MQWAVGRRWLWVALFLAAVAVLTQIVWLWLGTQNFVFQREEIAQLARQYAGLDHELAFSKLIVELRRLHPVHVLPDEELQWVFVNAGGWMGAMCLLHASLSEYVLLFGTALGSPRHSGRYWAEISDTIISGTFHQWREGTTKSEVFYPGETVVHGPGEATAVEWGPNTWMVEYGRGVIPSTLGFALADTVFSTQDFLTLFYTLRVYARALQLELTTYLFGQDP
T3 sequence (A0A286XTF2 1-366): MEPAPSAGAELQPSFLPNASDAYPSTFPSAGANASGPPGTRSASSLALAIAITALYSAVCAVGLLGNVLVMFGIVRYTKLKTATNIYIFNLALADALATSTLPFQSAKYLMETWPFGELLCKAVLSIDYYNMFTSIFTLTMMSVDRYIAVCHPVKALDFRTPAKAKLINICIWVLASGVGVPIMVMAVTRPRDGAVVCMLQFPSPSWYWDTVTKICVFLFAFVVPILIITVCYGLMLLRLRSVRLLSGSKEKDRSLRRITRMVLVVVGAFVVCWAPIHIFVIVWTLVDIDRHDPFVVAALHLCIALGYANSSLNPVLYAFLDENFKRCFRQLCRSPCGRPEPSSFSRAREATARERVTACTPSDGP
T1 sequence (P41144 whole entry): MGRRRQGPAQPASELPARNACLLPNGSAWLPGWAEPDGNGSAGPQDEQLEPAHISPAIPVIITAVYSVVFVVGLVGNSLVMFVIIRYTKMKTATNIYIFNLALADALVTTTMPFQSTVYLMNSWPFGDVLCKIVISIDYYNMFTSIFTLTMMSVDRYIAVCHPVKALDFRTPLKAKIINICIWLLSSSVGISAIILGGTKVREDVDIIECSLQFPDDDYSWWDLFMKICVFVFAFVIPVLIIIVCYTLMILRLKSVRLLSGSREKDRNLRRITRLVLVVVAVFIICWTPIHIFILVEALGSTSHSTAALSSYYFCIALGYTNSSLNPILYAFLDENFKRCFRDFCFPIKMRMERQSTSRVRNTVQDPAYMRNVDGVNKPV

CCC(CC=Cc1ccccc1)(c1ccccc1)N(C)CC1CC1 (single isomer, unassigned) [Example 11, (-)-α-Cinnamyl-N-cyclopropyl-methyl-α-ethyl-N-methyl-benzylamine hydrochloride]
% antagonism of the amnesia [1, 5]: 38% | IC50 (kappa receptors): 5.14 µM | i.p.: % prot. (inhibition of convulsions induced by picrotoxin) ([2]; hydrochloride): 70% | IC50 (sigma receptors; [6]): 0.102 µM | IC50 (sigma receptors; sigma rec. IC50, Table 3): 0.21 µM | IC50 (delta receptors): 41.6 µM

CCC(C[C@@H]1C[C@H]1c1ccccc1)(c1ccco1)N(C)CC1CC1 (relative stereo) [Example 23, trans-N-Cyclopropylmethyl-α-ethyl-N-methyl-α-(2-phenyl-1-cyclopropylmethyl)-2-furfurylamine]
i.p.: % prot. (inhibition of convulsions induced by picrotoxin) [2]: 50%

CCC(CC=Cc1ccc(Cl)c(Cl)c1)(c1ccc(Cl)cc1)N(C)CC1CC1 (stereo not drawn) [Example 16, α-(3',4'-Dichloro)cinnamyl-N-cyclopropyl-methyl-α-ethyl-N-methyl-p-chlorobenzylamine]
p.o.: % prot. (inhibition of convulsions induced by picrotoxin) [2]: 60%

CCC(C[C@@H]1C[C@H]1c1ccccc1)(c1ccsc1)N(C)CC1CC1 (relative stereo) [Example 25, trans-N-Cyclopropylmethyl-α-ethyl-N-methyl-α-(2-phenyl-1-cyclopropylmethyl)-3-thiophenemethylamine]
i.p.: % prot. (inhibition of convulsions induced by picrotoxin) [2]: 50% | p.o.: % prot. (inhibition of convulsions induced by picrotoxin) [2]: 50%

CCC(C[C@@H]1C[C@H]1c1ccccc1)(c1cccs1)N(C)CC1CC1 (relative stereo) [Example 24, trans-N-Cyclopropylmethyl-α-ethyl-N-methyl-α-(2-phenyl-1-cyclopropylmethyl)-2-thiophenemethylamine]
IC50 (mu receptors): 3.02 µM | IC50 (kappa receptors): 9.1 µM | i.p.: % prot. (inhibition of convulsions induced by picrotoxin) [2]: 50% | p.o.: % prot. (inhibition of convulsions induced by picrotoxin) [2]: 50% | ED50 [3]: 45.7 mg/kg | IC50 (sigma receptors; [7]): 0.029 µM | IC50 (delta receptors): 57 µM

CCC(CC=Cc1ccccc1)(c1ccccc1)N(C)CC1CC1 (single isomer, unassigned) [Example 10, (+)-α-Cinnamyl-N-cyclopropyl-methyl-α-ethyl-N-methyl-benzylamine hydrochloride]
% antagonism of the amnesia [1, 5]: 76% | IC50 (kappa receptors): 23.8 µM | i.p.: % prot. (inhibition of convulsions induced by picrotoxin) ([2]; hydrochloride): 50% | ED50 [3]: 5 mg/kg | IC50 (sigma receptors; [6]): 0.013 µM | IC50 (sigma receptors; sigma rec. IC50, Table 3): 0.013 µM | IC50 (delta receptors): 67.9 µM | Increase AUC 1 2 h ([4]; AUC of alkaline flow rate 1 h to 2 h compared with control animals): 66.2 | Increase in secretion ([4]; maximum increase, anaesthetized rats): 7.5 micro-eq/cm/h

CCC(CC=Cc1ccccc1)(c1ccco1)N(C)CC1CC1 (stereo not drawn) [Example 20, α-Cinnamyl-N-cyclopropylmethyl-α-ethyl-N-methyl-2-furfurylamine]
p.o.: % prot. (inhibition of convulsions induced by picrotoxin) [2]: 60%

CCC(CC=Cc1ccccc1)(NCC1(C)CC1)c1ccccc1 (stereo not drawn) [Example 2, α-Cinnamyl-α-ethyl-N-(1-methylcyclopropyl)-methyl-benzylamine]
p.o.: % prot. (inhibition of convulsions induced by picrotoxin) [2]: 90%

CCC(CC=Cc1ccccc1)(c1ccccc1)N(C)CCC1CC1 (stereo not drawn) [Example 8, α-Cinnamyl-N-cyclopropylethyl-α-ethyl-N-methyl-benzylamine]
IC50 (PCP receptors): 25.9 µM | IC50 (mu receptors): 2.04 µM | IC50 (kappa receptors): 1.52 µM | ED50 [2, 8]: 53.6 mg/kg | IC50 (sigma receptors; [7]): 0.021 µM | IC50 (delta receptors): 7.55 µM

CCC(CC=Cc1ccccc1)(NC[C@@H]1C[C@H]1c1ccccc1)c1ccccc1 (relative stereo) [Example 3, α-Cinnamyl-α-ethyl-N-(trans-2-phenyl-cyclopropyl)methyl-benzylamine]
IC50 (sigma receptors; [7]): 0.368 µM

CCC(CC=Cc1ccccc1)(c1ccccc1)N(C)C[C@@H]1C[C@H]1c1ccccc1 (relative stereo) [Example 6, α-Cinnamyl-α-ethyl-N-methyl-N-(trans-2-phenyl-cyclopropyl)-methyl-benzylamine]
IC50 (sigma receptors; [7]): 0.246 µM

CC(C)C(CC=Cc1ccccc1)(c1ccccc1)N(C)CC1CC1 (stereo not drawn) [Example 14, α-Cinnamyl-N-cyclopropylmethyl-α-isopropyl-N-methyl-benzylamine]
IC50 (PCP receptors): 14.2 µM | IC50 (mu receptors): 34.2 µM | IC50 (kappa receptors): 76 µM | IC50 (sigma receptors; [9]): 0.669 µM | IC50 (delta receptors): > 100 µM

NC(=O)CN1CCCC1=O [piracetam, reference compound]
% antagonism of the amnesia ([1]; 2048 mg/kg p.o.): 109% | % antagonism of the amnesia ([1]; 2048 mg/kg p.o., listed as piracetam): about 100%

CN(CC1CC1)C(C)(CC=Cc1ccccc1)c1ccccc1 (stereo not drawn) [Example 13, α-Cinnamyl-N-cyclopropylmethyl-N-α-dimethyl-benzylamine]
IC50 (PCP receptors): 10.5 µM | IC50 (mu receptors): 10.2 µM | IC50 (kappa receptors): 8.68 µM | ED50 ([2]; ip, 0.5 h, read-out: i.p.: ED50 (inhibition of convulsions induced by picrotoxin)): 32.5 mg/kg | ED50 [2, 8]: 64.4 mg/kg | IC50 (sigma receptors; [9]): 0.337 µM | IC50 (delta receptors): 9.37 µM
